Experimental data from US8710233B2 (Gruenenthal GmbH, priority 2005, dated 2014).
Where two headings read alike, the source gives them in different places.

Tests used:
[1] = system: capsaicin induced hypothermie; experiment: Hypothermie assay in the mouse (capsaicin induced hypothermie); type: in vivo; settings: mouse, read-out: inhibition hypothermie (n = 5); for inhibition in vivo at 0.3 mg/kg: 0.3 mg/kg body weight po; for inhibition in vivo at 1 mg/kg: 1 mg/kg body weight po; for inhibition in vivo at 0.1 mg/kg: 0.1 mg/kg body weight po
Experimental: V. Hypothermie Assay an der Maus
Male NMRI mice (weight 25-35 gram, supplier IFFA CREDO, Bruxelles, Belgium) are used in the hypothermie assay. The animals are kept under standardized conditions: light/darkness interval (6:00 to 18:00 light; 18:00 to 6:00 Uhr darkness), room temperature 19-22° C., relative humidity 35-70%, 15 times per hour change of compartment air, airflow <0.2 m/sec. The animals were fed on a standardized diet (ssniff diet, ssniff Spezialdiäten GmbH, Soest, Germany) and tap water. Water and diet were detracted during the experiment. All animals were used once in the experiment. The animals were allowed to adapt to the experimental conditions for at least 5 days.
The acute application of capsaicin (VR-1 agonist) leads to a decrease of the core body temperature in rat and mice via stimulation of heat sensors. Only compounds which act as specific VR-1-receptor antagonists can antagonize the capsaicin induced hypothermie. In contrast, morphine induced hypothermie is not antagonized by VR-1 antagonists. Thus, this experiment is suitable for the determination of compounds that act as VR1-antagonists via their effect on the core body temperature.
For the determination of the core body temperature a digital thermometer was used (Thermalert TH-5, physitemp, Clifton N.J., USA). The measuring head was inserted into the rectum.
The individual basis value is determined by measuring the body temperature twice in an interval of about half an hour. […] […] The test compound is given 10 min (i.v.) or 15 min (p.o.), respectively, before application of capsaicin. The body temperature is determined 7.5/15 and 30 min after application of capsaicin (i.v.+i.p.) or 15/30/60/90/120 min after application of capsaicin (p.o.+i.p.), respectively. In addition, another group of mice is only given the test compound or a vehicle control.
The measuring points are given as average values±S.E.M. of the absolute values. The antagonistic effect is given in percent of inhibition of capsaicin induced hypothermie.

[2] = molecular target: T1, vanilloid receptor 1 (VR1/TRPV1) of the rat species (Rattus norvegicus, UniProt O35433); experiment: FLIPR Ca2+ influx assay on rat dorsal root ganglia cells (pharmacological method I); type: cell-based
T1 construct: The spinal column is removed from decapitated rats; from tissue; host or cells: primary cells dissociated from rat dorsal root ganglia
T1 sequence (O35433 whole entry): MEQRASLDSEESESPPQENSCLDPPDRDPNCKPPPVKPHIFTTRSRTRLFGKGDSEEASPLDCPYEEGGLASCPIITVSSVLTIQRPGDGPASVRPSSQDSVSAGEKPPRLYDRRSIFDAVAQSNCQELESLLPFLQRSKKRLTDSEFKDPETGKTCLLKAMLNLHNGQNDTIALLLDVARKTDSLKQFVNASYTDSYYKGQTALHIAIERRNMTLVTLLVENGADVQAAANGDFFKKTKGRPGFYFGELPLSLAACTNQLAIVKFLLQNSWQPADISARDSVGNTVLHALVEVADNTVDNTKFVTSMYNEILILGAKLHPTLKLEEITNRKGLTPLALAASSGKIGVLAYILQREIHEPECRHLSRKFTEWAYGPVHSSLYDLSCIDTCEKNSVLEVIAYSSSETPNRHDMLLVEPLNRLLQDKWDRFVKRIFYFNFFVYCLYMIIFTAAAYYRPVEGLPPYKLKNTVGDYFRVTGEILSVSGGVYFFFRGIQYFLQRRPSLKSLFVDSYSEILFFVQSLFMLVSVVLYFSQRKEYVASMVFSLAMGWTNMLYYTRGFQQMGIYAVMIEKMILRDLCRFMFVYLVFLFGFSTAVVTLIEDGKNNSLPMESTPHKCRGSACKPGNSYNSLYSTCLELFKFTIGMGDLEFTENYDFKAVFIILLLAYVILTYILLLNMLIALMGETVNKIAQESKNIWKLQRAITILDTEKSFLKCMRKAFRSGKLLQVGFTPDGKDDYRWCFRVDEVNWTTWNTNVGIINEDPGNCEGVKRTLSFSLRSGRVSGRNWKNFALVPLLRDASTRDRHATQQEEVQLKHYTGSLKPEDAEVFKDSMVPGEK
Outline: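 Primary rat dorsal root ganglion cells loaded with 2 μM Fluo-4, Ca2+ influx read on FLIPR as peak fluorescence. Triplicates, at least 3 independent experiments.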

[3] = molecular target: VR1/TRPV1 receptor (Homo sapiens, UniProt Q8NER1); experiment: IC50 (human) after pH stimulus; type: cell-based
VR1/TRPV1 receptor, sequence (Q8NER1 whole entry): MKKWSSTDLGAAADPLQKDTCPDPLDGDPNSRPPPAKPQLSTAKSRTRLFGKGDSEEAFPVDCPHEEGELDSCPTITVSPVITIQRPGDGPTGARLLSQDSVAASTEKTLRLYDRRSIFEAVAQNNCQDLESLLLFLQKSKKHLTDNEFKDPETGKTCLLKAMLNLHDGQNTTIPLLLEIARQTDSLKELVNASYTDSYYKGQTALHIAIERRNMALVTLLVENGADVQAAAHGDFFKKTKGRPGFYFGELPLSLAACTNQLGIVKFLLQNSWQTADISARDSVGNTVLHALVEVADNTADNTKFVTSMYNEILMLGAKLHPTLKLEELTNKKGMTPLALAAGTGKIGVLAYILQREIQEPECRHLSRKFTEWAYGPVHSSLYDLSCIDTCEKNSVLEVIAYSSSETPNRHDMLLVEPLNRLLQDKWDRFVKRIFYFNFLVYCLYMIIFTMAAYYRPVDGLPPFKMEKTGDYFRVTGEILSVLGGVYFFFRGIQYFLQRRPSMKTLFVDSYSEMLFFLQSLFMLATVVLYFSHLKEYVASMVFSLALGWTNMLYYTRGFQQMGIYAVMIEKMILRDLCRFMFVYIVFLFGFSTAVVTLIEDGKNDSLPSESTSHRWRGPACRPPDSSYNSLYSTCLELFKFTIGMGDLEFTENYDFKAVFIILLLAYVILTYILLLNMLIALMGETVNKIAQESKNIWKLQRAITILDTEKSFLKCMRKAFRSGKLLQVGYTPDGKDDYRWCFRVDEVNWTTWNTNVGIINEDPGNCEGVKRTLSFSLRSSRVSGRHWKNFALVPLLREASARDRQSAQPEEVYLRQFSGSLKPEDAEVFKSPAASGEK

[4] = molecular target: T2, vanilloid receptor (VR1) (Homo sapiens, UniProt Q8NER1); experiment: FLIPR Ca2+ influx assay on CHO K1 cells transfected with the VR1 gene (pharmacological method II); type: cell-based
T2 construct: expressed in transfected cells; host or cells: CHO K1 cells (ECACC), stably transfected
T2 sequence (Q8NER1 whole entry): as above

[5] = table 4, capsaicin, read-out: Ki (rat) Cap.
[6] = table 4, capsaicin, read-out: Ki (human) Cap.
[7] = @ 10 μM, read-out: inhibition in percent, IC50 (human) after pH stimulus
[8] = @ 1 μM, ne = no effect, read-out: inhibition in percent, IC50 (human) after pH stimulus

Structure (SMILES) | Ki [2, 5] | IC50 ([3]; table 4) | Ki [4, 6] | inhibition in vivo at 0.3 mg/kg [1] | also measured
CC(C(=O)NCc1ccc(C(F)(F)Cl)nc1N1CCCCCC1)c1ccc(NS(C)(=O)=O)c(F)c1 (centres unmarked) [Example 132, N-[2-azepan-1-yl-6-(chloro-difluoro-methyl)-pyridin-3-ylmethyl]-2-(3-fluoro-4-methylsulfonamido-phenyl)-propionamide] | 0.7 nM | 14.7 nM | – | 0% | –
CC(C(=O)NCc1ccc(C(F)(F)F)nc1N1CCC(Nc2ccccc2)CC1)c1ccc(NS(C)(=O)=O)c(F)c1 (centres unmarked) [Compound 290] | – | – | – | 78% | inhibition in vivo at 1 mg/kg [1]: 68%
CC(C(=O)NCc1ccc(C(F)(F)F)nc1OCc1ccccc1)c1ccc(NS(C)(=O)=O)c(F)c1 (centres unmarked) [Compound 106] | – | – | – | 21% | inhibition in vivo at 1 mg/kg [1]: 22%; inhibition in vivo at 10 mg/kg ([1]; 10 mg/kg body weight po): 84%
CC(C)COc1cc(C(F)(F)F)ccc1CNC(=O)[C@H](C)c1ccc(NS(C)(=O)=O)c(F)c1 [Example 99, (R)-2-(3-fluoro-4-methylsulfonamido-phenyl)-N-(2-isobutoxy-4-trifluoromethyl-benzyl)-propionamide] | – | 419 nM | 5.8 nM | 1% | –
CCCCCCOc1nc(C(F)(F)F)ccc1CNC(=O)[C@H](C)c1ccc(NS(C)(=O)=O)c(F)c1 [Example 94, (R)-2-(3-fluoro-4-methylsulfonamido-phenyl)-N-(2-hexyloxy-6-trifluoromethyl-pyridin-3-ylmethyl)-propionamide] | – | – | – | 0% | –
CC(C(=O)NCc1ccc(C(F)(F)F)nc1N1CCC(N2CCCCC2)CC1)c1ccc(NS(C)(=O)=O)c(F)c1 (centres unmarked) [Example 164, 2-(3-fluoro-4-methylsulfonamido-phenyl)-N-(6″-trifluoromethyl-3,4,5,6,3′,4′,5′,6′-octahydro-2H,2′H-[1,4′;1′,2″]terpyridin-3″-ylmethyl)-propionamide] | – | – | – | – | inhibition at 10 µM ([4]; CHO-K1, @ 10 μM, read-out: inhibition in percent, Ki (human) Cap.): 84%; inhibition at 10 µM ([2]; @ 10 μM, read-out: inhibition in percent, Ki (rat) Cap.): 85%; inhibition at 10 µM [3, 7]: 30%; inhibition at 25 µM ([3]; @ 25 μM, read-out: inhibition in percent, IC50 (human) after pH stimulus): 28%
CC(C(=O)NCc1ccc(C(F)(F)F)nc1OC1CCC(C(C)(C)C)CC1)c1ccc(NS(C)(=O)=O)c(F)c1 (centres unmarked) [Example 170, N-[2-(4-tert-butyl-cyclohexyloxy)-6-trifluoromethyl-pyridin-3-ylmethyl]-2-(3-fluoro-4-methylsulfonamido-phenyl)-propionamide] | 5.1 nM | 242 nM | 7.7 nM | – | –
CC(C(=O)NCc1ccc(C(F)(F)F)nc1N1CCNCC1)c1ccc(NS(C)(=O)=O)c(F)c1 (centres unmarked) [Example 74] | – | – | – | – | inhibition in percent, Ki (human) Cap. ([4]; @ 10 μM): 71% @ 10 μM; inhibition in percent, Ki (rat) Cap. ([2]; @ 10 μM): 70% @ 10 μM; inhibition in percent, IC50 (human) after pH stimulus ([3]; @ 10 μM): 35% @ 10 μM
CC1CCN(c2nc(C(F)(F)F)ccc2CCNC(=O)C(C)c2ccc(NS(C)(=O)=O)c(F)c2)CC1 (centres unmarked) [Example 284, 2-(3-fluoro-4-methylsulfonamido-phenyl)-N-[2-(4-methyl-6′-trifluoromethyl-3,4,5,6-tetrahydro-2H-[1,2′]bipyridinyl-3′-yl)-ethyl]-propionamide] | 48 nM | – | 54.9 nM | – | inhibition in percent, IC50 (human) after pH stimulus ([3]; @ 1 μM, ne = no effect): ne @ 1 μM
COc1nc(C(F)(F)F)ccc1CNC(=O)C(C)c1ccc(NS(C)(=O)=O)c(F)c1 (centres unmarked) [Example 18, 2-(3-fluoro-4-(methylsulfonamido)phenyl)-N-((2-methoxy-6-(trifluoromethyl)pyridin-3-yl)methyl)propanamide] | – | – | – | – | Ki ([4]; Table 2, displacement of capsaicin (100 nM), Cheng-Prusoff, read-out: Ki (human)): 68.9 nM; Ki ([2]; Ki (rat), Table 2, displacement of capsaicin (100 nM), Cheng-Prusoff): 47 nM; IC50 ([3]; Table 2): 2710 nM

Now from value to compound, other results behind:

Ki [2, 5] | IC50 ([3]; table 4) | Ki [4, 6] | Structure (SMILES) | inhibition in vivo at 0.3 mg/kg [1] | also measured
– | 18.6 nM | 0.5 nM | CC(C(=O)NCc1ccc(C(F)(F)F)nc1OCc1ccccc1)c1ccc(NS(C)(=O)=O)c(F)c1 (centres unmarked) [Example 106, N-(2-benzyloxy-6-trifluoromethyl-pyridin-3-ylmethyl)-2-(3-fluoro-4-methylsulfonamido-phenyl)-propionamide] | – | inhibition in vivo at 0.1 mg/kg [1]: 24%
2.4 nM | – | – | CC(C(=O)NCc1ccc(C(F)(F)F)nc1N1CCCCCC1)c1ccc(NS(C)(=O)=O)c(F)c1 (centres unmarked) [Example 81, N-(2-azepan-1-yl-6-trifluoromethyl-pyridin-3-ylmethyl)-2-(3-fluoro-4-methylsulfonamido-phenyl)-propionamide] | 21% | –
1.9 nM | – | – | CC(C(=O)NCc1ccc(C(F)(F)F)nc1N1CCC(c2ccccc2)CC1)c1ccc(NS(C)(=O)=O)c(F)c1 (centres unmarked) [Example 137] | 9% | –
– | 480 nM | 4.4 nM | CC(C(=O)NCc1ccc(C(F)(F)F)nc1N1CCC(Nc2ccccc2)CC1)c1ccc(NS(C)(=O)=O)c(F)c1 (centres unmarked) [Example 290, 2-(3-fluoro-4-methylsulfonamido-phenyl)-N-(4-phenylamino-6′-trifluoromethyl-3,4,5,6-tetrahydro-2H-[1,2′]bipyridinyl-3′-ylmethyl)-propionamide] | – | inhibition in vivo at 0.1 mg/kg [1]: 24%
1.2 nM | – | 0.8 nM | CC1CCCN(c2nc(C(F)(F)F)ccc2CNC(=O)C(C)c2ccc(NS(C)(=O)=O)c(F)c2)C1 (centres unmarked) [Example 282, 2-(3-fluoro-4-methylsulfonamido-phenyl)-N-(3-methyl-6′-trifluoromethyl-3,4,5,6-tetrahydro-2H-[1,2′]bipyridinyl-3′-ylmethyl)-propionamide] | – | inhibition at 1 µM [3, 8]: 57%; inhibition at 10 µM [3, 7]: 62%
22.8 nM | – | 15.4 nM | CC(C(=O)NCc1ccc(C(F)(F)F)nc1N1CCC(CN(C)C)(c2ccccc2)CC1)c1ccc(NS(C)(=O)=O)c(F)c1 (centres unmarked) [Example 259, N-(4-dimethylaminomethyl-4-phenyl-6′-trifluoromethyl-3,4,5,6-tetrahydro-2H-[1,2′]bipyridinyl-3′-ylmethyl)-2-(3-fluoro-4-methylsulfonamido-phenyl)-propionamide] | – | inhibition at 1 µM [3, 8]: 51%; inhibition at 10 µM [3, 7]: 47%
1.5 nM | 108 nM | 1.4 nM | CC(C(=O)NCc1ccc(C(F)(F)F)nc1N1CCN(c2ccccn2)CC1)c1ccc(NS(C)(=O)=O)c(F)c1 (centres unmarked) [Example 214, 2-(3-fluoro-4-methylsulfonamido-phenyl)-N-[2-(4-pyridin-2-yl-piperazin-1-yl)-6-trifluoromethyl-pyridin-3-ylmethyl]-propionamide] | – | –
28.1 nM | 2360 nM | 68.7 nM | CC(C(=O)NCc1ccc(C(F)(F)F)cc1F)c1ccc(NS(C)(=O)=O)c(F)c1 (centres unmarked) [Example 114, 2-(3-fluoro-4-methylsulfonamido-phenyl)-N-(2-fluoro-4-trifluoromethyl-benzyl)-propionamide] | – | –
0.4 nM | 31 nM | 0.6 nM | CC(C(=O)NCc1ccc(C(F)(F)F)nc1N1CCC(C(F)(F)F)CC1)c1ccc(NS(C)(=O)=O)c(F)c1 (centres unmarked) [Example 190, N-(4,6′-bis-trifluoromethyl-3,4,5,6-tetrahydro-2H-[1,2′]bipyridinyl-3′-ylmethyl)-2-(3-fluoro-4-methylsulfonamido-phenyl)-propionamide] | – | –
17.9 nM | 289 nM | 6.1 nM | CC(C(=O)NCc1ccc(C(F)(F)F)nc1N1CCC2(CC1)CC(c1ccccc1)=NO2)c1ccc(NS(C)(=O)=O)c(F)c1 (centres unmarked) [Example 252, 2-(3-fluoro-4-methylsulfonamido-phenyl)-N-[2-(3-phenyl-1-oxa-2,8-diaza-spiro[4.5]dec-2-en-8-yl)-6-trifluoromethyl-pyridin-3-ylmethyl]-propionamide] | – | –
2.5 nM | – | 5 nM | CC(C(=O)NCc1ccc(C(F)(F)F)nc1-c1ccc2c(c1)OCCO2)c1ccc(NS(C)(=O)=O)c(F)c1 (centres unmarked) [Example 265, N-[2-(2,3-dihydro-benzo[1,4]dioxin-6-yl)-6-trifluoromethyl-pyridin-3-ylmethyl]-2-(3-fluoro-4-methylsulfonamido-phenyl)-propionamide] | – | inhibition at 0.1 µM ([3]; @ 0.1 μM, read-out: inhibition in percent, IC50 (human) after pH stimulus): 17%; inhibition at 1 µM [3, 8]: 33%
